Where a name gives a salt, the structure may show the parent alone. Read-outs that look alike come from different tables or passages of the source.
Tests used:
[1] = target: T1, mouse TREK-1 (mTREK-1t) (Mus musculus, UniProt P97438); assay: FLIPR membrane potential assay in HEK-293 cells stably transfected with mTREK-1t; assay type: cell-based; details: for activation at 0.0005 %: HEK293, Sample Conc. 0.0005%; for activation at 0.0005 % / activation at 0.001 % / activation at 0.0021 % / activation at 0.0042 % / activation at 0.0083 % / activation at 0.0167 % / activation at 0.033 %: read-out: Activity Level (percentage of activity relative to 100% with 50 mM potassium nitrate); for activation at 0.001 %: HEK293, Sample Conc. 0.0010%; for activation at 0.0021 %: HEK293, Sample Conc. 0.0021%; for activation at 0.0042 %: HEK293, Sample Conc. 0.0042%; for activation at 0.0083 %: HEK293, Sample Conc. 0.0083%; for activation at 0.0167 %: HEK293, Sample Conc. 0.0167%; for activation at 0.033 %: HEK293, Sample Conc. 0.0330%
T1 construct: (mTREK-1t) by Capital Biosciences (Rockville, Md.)
T1 sequence (P97438 with tags, fused parts or gaps limits assumed): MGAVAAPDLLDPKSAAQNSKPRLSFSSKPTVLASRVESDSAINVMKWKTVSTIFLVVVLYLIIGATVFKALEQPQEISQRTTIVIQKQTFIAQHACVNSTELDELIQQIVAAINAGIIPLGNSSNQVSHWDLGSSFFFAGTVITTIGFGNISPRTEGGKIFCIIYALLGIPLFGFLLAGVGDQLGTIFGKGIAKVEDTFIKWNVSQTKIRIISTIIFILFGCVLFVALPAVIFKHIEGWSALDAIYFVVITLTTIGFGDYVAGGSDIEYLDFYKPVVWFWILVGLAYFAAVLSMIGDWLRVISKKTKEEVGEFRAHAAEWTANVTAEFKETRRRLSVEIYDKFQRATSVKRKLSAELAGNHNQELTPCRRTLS

[2] = concentration level where the cooling effect can be clearly recognized; cited from earlier work
[3] = HEK293, read-out: Fluorescence per Sample concentration (percent activity relative to potassium nitrate)

Row | Compound | activation at 0.0005 % [1] [%] | activation at 0.001 % [1] [%] | activation at 0.0021 % [1] [%] | activation at 0.0042 % [1] [%] | activation at 0.0083 % [1] [%] | activation at 0.0167 % [1] [%] | activation at 0.033 % [1] [%] | further results
1 | CCCOC(=O)CCCCC(=O)OCCC [Dipropyl Adipate] | 0 | 0 | 0 | 0 | 0.51 | 2.66 | 12.2 | –
2 | CC(C)OC(=O)CCCCC(=O)OC(C)C [Diisopropyl Adipate] | 1.31 | 1.38 | 3.43 | 3.56 | 6.59 | 14.8 | 30.4 | –
3 | CCOC(=O)CC(O)(CC(=O)OCC)C(=O)OCC [Triethyl Citrate] | 4.06 | 1.7 | 2.98 | 3.67 | 6.17 | 13.4 | 17.2 | –
4 | CCCCCCCCCCC1CCC(=O)O1 (centres unmarked) [gamma-Tetradecalactone] | – | – | – | – | – | – | – | Fluorescence per Sample concentration (percent activity relative to potassium nitrate) ([1]; sample concentration 50 μM, relative to 50 mM potassium nitrate): 3.21%; Fluorescence per Sample concentration (percent activity relative to potassium nitrate) ([1]; sample concentration 100 μM, relative to 50 mM potassium nitrate): 3.54%; Fluorescence per Sample concentration (percent activity relative to potassium nitrate) ([1]; sample concentration 200 μM, relative to 50 mM potassium nitrate): 9.82%; Fluorescence per Sample concentration (percent activity relative to potassium nitrate) ([1]; sample concentration 400 μM, relative to 50 mM potassium nitrate): 15.89%
5 | CC(C)[C@@H]1CC[C@@H](C)C[C@@H]1O [d-neomenthol] | – | – | – | – | – | – | – | cooling threshold [2]: about 25,000 ppb
6 | CC=Cc1ccc(OC)c(OC)c1 [1,2-Dimethoxy 4-propenyl benzene] | – | – | – | – | – | – | – | activation at 50 µM [1, 3]: 5.19%; activation at 100 µM [1, 3]: 10.5%; activation at 200 µM [1, 3]: 29.1%
7 | COC(=O)c1ccccc1O [Methyl Salicylate] | – | – | – | – | – | – | – | percentage of TREK-1 activity relative to potassium nitrate ([1]; Sample Concentration 0.0005%): 2.35%; percentage of TREK-1 activity relative to potassium nitrate ([1]; Sample Concentration 0.0010%): 2.33%; percentage of TREK-1 activity relative to potassium nitrate ([1]; Sample Concentration 0.0021%): 2.66%; percentage of TREK-1 activity relative to potassium nitrate ([1]; Sample Concentration 0.0042%): 4.94%; percentage of TREK-1 activity relative to potassium nitrate ([1]; Sample Concentration 0.0083%): 8.31%; percentage of TREK-1 activity relative to potassium nitrate ([1]; Sample Concentration 0.0167%): 17.4%; percentage of TREK-1 activity relative to potassium nitrate ([1]; Sample Concentration […]): 29.43%
8 | CCCCOC(=O)CC(CC(=O)OCCCC)(OC(C)=O)C(=O)OCCCC [Acetyl Tributyl Citrate] | 2.69 | 0.48 | 3.06 | 2.5 | 5.89 | 14.1 | 24 | –
9 | CC(C)C=C(C=O)c1ccccc1 [4-Methyl-2-phenyl-2 Pentenal] | – | – | – | – | – | – | – | activation at 50 µM ([1]; HEK293, sample concentration 50 μM, relative to 50 mM potassium nitrate, read-out: Fluorescence per Sample concentration (percent activity relative to potassium nitrate)): 16.5%; activation at 100 µM ([1]; HEK293, sample concentration 100 μM, relative to 50 mM potassium nitrate, read-out: Fluorescence per Sample concentration (percent activity relative to potassium nitrate)): 27.1%; activation at 200 µM ([1]; HEK293, sample concentration 200 μM, relative to 50 mM potassium nitrate, read-out: Fluorescence per Sample concentration (percent activity relative to potassium nitrate)): 52.1%
10 | O=[N+]([O-])[O-].[K+] [Potassium Nitrate, reference compound] | – | – | – | – | – | – | – | Activity Level (percentage of activity relative to 100% with 50 mM potassium nitrate) [1]: 100%; Fluorescence per Sample concentration (percent activity relative to potassium nitrate) [1]: 100%; percentage of TREK-1 activity relative to potassium nitrate [1]: 100%
11 | Cc1ccc(C(C)C)c(O)c1 [Thymol] | – | – | – | – | – | – | – | percentage of TREK-1 activity relative to potassium nitrate ([1]; Sample Concentration 0.0005%): 4.57%; percentage of TREK-1 activity relative to potassium nitrate ([1]; Sample Concentration 0.0010%): 4.82%; percentage of TREK-1 activity relative to potassium nitrate ([1]; Sample Concentration 0.0021%): 3.86%; percentage of TREK-1 activity relative to potassium nitrate ([1]; Sample Concentration 0.0042%): 4.09%; percentage of TREK-1 activity relative to potassium nitrate ([1]; Sample Concentration 0.0083%): 6.73%; percentage of TREK-1 activity relative to potassium nitrate ([1]; Sample Concentration 0.0167%): 31.4%; percentage of TREK-1 activity relative to potassium nitrate ([1]; Sample Concentration […]): 65.22%

From patent US9884130B2, “Compositions for delivery of oral comfort sensations” (The Procter & Gamble Company, priority 2013, dated 2018)
